From patent US20230099344A1, “COMPOUNDS AND METHODS FOR THE TARGETED DEGRADATION OF IRAK-4” (Arvinas Operations, Inc., priority 2021, published 2023)

Columns and labels:
Type in all cases: cell-based
IRAK-4 = target: T1, IRAK-4 (Homo sapiens, UniProt Q9NWZ3); experiment: IRAK-4 ELISA, PBMC degradation; design: endogenous in cells; host or cells: PBMC; conditions: treated overnight
T1 sequence (Q9NWZ3 1-460): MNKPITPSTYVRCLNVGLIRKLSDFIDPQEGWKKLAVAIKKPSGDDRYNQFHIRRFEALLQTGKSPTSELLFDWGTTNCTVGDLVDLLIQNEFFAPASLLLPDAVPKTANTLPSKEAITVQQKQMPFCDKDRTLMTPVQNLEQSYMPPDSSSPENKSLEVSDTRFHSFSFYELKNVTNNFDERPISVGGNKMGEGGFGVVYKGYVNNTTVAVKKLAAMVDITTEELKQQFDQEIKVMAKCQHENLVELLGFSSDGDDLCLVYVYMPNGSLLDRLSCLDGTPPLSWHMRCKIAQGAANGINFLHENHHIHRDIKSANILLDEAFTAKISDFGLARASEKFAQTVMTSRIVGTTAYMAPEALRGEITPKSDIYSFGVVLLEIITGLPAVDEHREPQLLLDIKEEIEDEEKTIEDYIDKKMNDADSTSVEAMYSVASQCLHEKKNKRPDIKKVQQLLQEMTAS
Procedure, shortened: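 OCI-Ly10 cells (1×10^6/ml) or PBMC (2×10^6/ml) treated with compound on the day of seeding and incubated overnight. IRAK-4 protein remaining in cell lysates quantified by sandwich ELISA.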

IL6 [1] = experiment: LPS stimulated IL6 inhibition assay in PBMC; conditions: Homo sapiens, PBMC, 24 h, human PBMCs, LPS stimulation, compound overnight, IL6 by MSD after 24 hrs; for Dmax: read-out: LPS Stim IL6 inhibition Dmax; for IC50: read-out: LPS stim IL6 inhibition IC50
Procedure, shortened: (§1)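 Seed human PBMC, 2.0×10^6 cells/mL → compound overnight → stimulant (IL-1β, LPS or R848) at per-donor EC50 → 24 hrs → media to MSD for IL6/IL8.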

IL6 [2] = experiment: R848 stimulated IL6 inhibition assay in PBMC; conditions: PBMC, human PBMCs, R848 stimulation, compound overnight, IL6 by MSD after 24 hrs; for Dmax: Homo sapiens, 24 h, read-out: R848 stim IL6 inhibition Dmax; for IC50: read-out: R848 stim IL6 inhibition IC50
Procedure, shortened: as §1

Structure (SMILES) | DC50 (IRAK-4) [nM] | Dmax (IRAK-4) [%] | PBMC DC90 (IRAK-4) | Dmax (IL6 [1]) [%] | IC50 (IL6 [1]) [nM] | Dmax (IL6 [2]) [%] | IC50 (IL6 [2]) [nM]
CC(C)(C1CN(c2ccc3c(c2)C(=O)N(C2CCC(=O)NC2=O)C3=O)C1)N1CCC(n2cc3cc(NC(=O)c4cnn5cccnc45)c(OCC4CC4)cc3n2)CC1 (stereo not drawn) [Example 256] | < 1 | ≥ 90 | A (A represents a DC90 value <10.0 nM) | < 70 | 10 to 50 | 80 to 90 | 10 to 50
O=C1CCC(N2C(=O)c3ccc(N4CCC(CN5CCC(n6cc7cc(NC(=O)c8cnn9cccnc89)c(N8CCC(N9CCC9)CC8)cc7n6)CC5)CC4)cc3C2=O)C(=O)N1 (stereo not drawn) [Example 150] | 1 to 5 | 80 to 90 | C (C represents a DC90 value ≥25.0 nM and <50 nM) | 80 to 90 | 50 to 100 | ≥ 90 | 10 to 50
O=C1CCC(N2C(=O)c3ccc(N4CC[C@H](O[C@H]5CC[C@@H](n6cc7cc(NC(=O)c8cnn9cccnc89)c(OCC8CC8)cc7n6)CC5)C4)cc3C2=O)C(=O)N1 (stereo partly drawn) [Example 427] | ≥ 10 |  | D (D represents a DC90 value ≥50 nM) | 70 to 80 | < 10 | < 70 | 10 to 50
O=C1CCC(N2Cc3ccc(N4CCC(CN5CCC(n6cc7cc(NC(=O)c8cnn9cccnc89)c(OCC8CC8)cc7n6)CC5)CC4)cc3C2=O)C(=O)N1 (stereo not drawn) [Example 155] | < 1 | ≥ 90 | A (A represents a DC90 value <10.0 nM) | 80 to 90 | < 10 | ≥ 90 | < 10
Cn1c(=O)n(C2CCC(=O)NC2=O)c2cccc(N3CC(N(C)[C@H]4CC[C@H](n5cc6cc(NC(=O)c7cnn8cccnc78)c(OCC7CC7)cc6n5)CC4)C3)c21 (stereo partly drawn) [Example 346] | 1 to 5 | 80 to 90 | B (B represents a DC90 value ≥10.0 nM and <25.0 nM) | 80 to 90 | < 10 | ≥ 90 | 10 to 50
COc1cc(N2CC(F)(CN3CCC(n4cc5cc(NC(=O)c6cnn7cccnc67)c(OC(C)C)nc5n4)CC3)C2)cc2c1C(=O)N(C1CCC(=O)NC1=O)C2=O (stereo not drawn) [Example 241] | 1 to 5 | 70 to 80 | B (B represents a DC90 value ≥10.0 nM and <25.0 nM) |  | ≥ 100 | 80 to 90 | 10 to 50
CN(CC1CCN(c2ccc3c(c2)C(=O)N(C2CCC(=O)NC2=O)C3=O)CC1)[C@H]1CC[C@H](n2cc3cc(NC(=O)c4cnn5cccnc45)c(OCC(F)F)cc3n2)CC1 (stereo partly drawn) [Example 357] | < 1 | 70 to 80 | A (A represents a DC90 value <10.0 nM) | ≥ 90 | < 10 | ≥ 90 | < 10
O=C1CCC(N2C(=O)c3ccc(N4CCC(CN5CCC(N6Cc7cc(NC(=O)c8cnn9cccnc89)c(N8CCN(CC(F)F)CC8)cc7C6=O)CC5)CC4)cc3C2=O)C(=O)N1 (stereo not drawn) [Example 52] | 1 to 5 | ≥ 90 | A (A represents a DC90 value <10.0 nM) | 80 to 90 | 10 to 50 | 80 to 90 | 10 to 50
COc1c(N2CC(F)(CN3CCC(n4cc5cc(NC(=O)c6cnn7cccnc67)c(OCC6CC6)cc5n4)CC3)C2)ccc2c1C(=O)N(C1CCC(=O)NC1=O)C2=O (stereo not drawn) [Example 246] | 5 to 10 | < 70 | B (B represents a DC90 value ≥10.0 nM and <25.0 nM) | 70 to 80 | < 10 | ≥ 90 | < 10
O=C1CCC(N2C(=O)c3ccc(N4CCC(CN5CCC(N6Cc7cc(NC(=O)c8cnn9cccnc89)c(OCC(F)F)cc7C6=O)CC5)CC4)cc3C2=O)C(=O)N1 (stereo not drawn) [Example 42] | 1 to 5 | ≥ 90 | B (B represents a DC90 value ≥10.0 nM and <25.0 nM) | < 70 | 50 to 100 | < 70 | < 10
O=C1CCC(N2C(=O)c3cccc(N4CC5(CCCN(C6CCC(n7cc8cc(NC(=O)c9cnn%10cccnc9%10)c(OCC9CC9)cc8n7)CC6)C5)C4)c3C2=O)C(=O)N1 (stereo not drawn) [Example 419] | 1 to 5 | 70 to 80 | A (A represents a DC90 value <10.0 nM) | 70 to 80 | < 10 | 80 to 90 | 10 to 50
CC(C)Oc1cc2c(cc1NC(=O)c1cnn3cccnc13)CN(C1CCN(CC3CCN(c4ccc5c(c4)C(=O)N(C4CCC(=O)NC4=O)C5)CC3)CC1)C2=O (stereo not drawn) [Example 105] | ≥ 10 |  | D (D represents a DC90 value ≥50 nM) | 70 to 80 | ≥ 100 | 80 to 90 | 50 to 100
CN1CC(Oc2cc3c(cc2NC(=O)c2cnn4cccnc24)CN(C2CCN(CC4CN(c5ccc6c(c5)C(=O)N(C5CCC(=O)NC5=O)C6=O)C4)CC2)C3=O)C1 (stereo not drawn) [Example 44] | ≥ 10 | 80 to 90 | D (D represents a DC90 value ≥50 nM) | 70 to 80 | 50 to 100 | ≥ 90 | 10 to 50
O=C1CCC(N2C(=O)c3ccc(N4CC[C@@H](N5CCC(n6cc7cc(NC(=O)c8cnn9cccnc89)c(OCC8CC8)cc7n6)CC5)C4)cc3C2=O)C(=O)N1 (stereo partly drawn) [Example 224] | 1 to 5 | 80 to 90 | B (B represents a DC90 value ≥10.0 nM and <25.0 nM) | 80 to 90 | 10 to 50 | ≥ 90 | 10 to 50
O=C1CCC(N2Cc3ccc(N4CCC(CN5CCC(N6Cc7cc(NC(=O)c8cnn9cccnc89)c(OCC(F)F)cc7C6=O)CC5)CC4)cc3C2=O)C(=O)N1 (stereo not drawn) [Example 45] | 1 to 5 | ≥ 90 | A (A represents a DC90 value <10.0 nM) | 70 to 80 | 10 to 50 | ≥ 90 | < 10
O=C1CCC(N2Cc3c(cccc3N3CC4(CCCN(C5CCC(n6cc7cc(NC(=O)c8cnn9cccnc89)c(OCC8CC8)cc7n6)CC5)C4)C3)C2=O)C(=O)N1 (stereo not drawn) [Example 367] | ≥ 10 | 80 to 90 | D (D represents a DC90 value ≥50 nM) | 80 to 90 | 10 to 50 | ≥ 90 | 10 to 50
O=C1CCC(N2Cc3ccc(N4CCN(C[C@H]5CC[C@H](n6cc7cc(NC(=O)c8cnn9cccnc89)c(OCC(F)F)cc7n6)CC5)CC4)cc3C2=O)C(=O)N1 (stereo partly drawn) [Example 433] | < 1 | ≥ 90 | A (A represents a DC90 value <10.0 nM) | 80 to 90 | < 10 | ≥ 90 | < 10
Cc1cnc2c(C(=O)Nc3cc4c(cc3OC(C)C)C(=O)N(C3CCN(CC5CCN(c6ccc7c(c6)C(=O)N(C6CCC(=O)NC6=O)C7=O)CC5)CC3)C4)cnn2c1 (stereo not drawn) [Example 56] | 1 to 5 | ≥ 90 | A (A represents a DC90 value <10.0 nM) | 70 to 80 | < 10 | ≥ 90 | 10 to 50
